The source of these data is patent US10323020B2, “Substituted piperidinyl tetrahydroquinolines” (Bayer Pharma Aktiengesellschaft, priority 2013, dated 2019).

Where a name gives a salt, the structure may show the parent alone.

Series [1] addresses recombinant human α2C receptor (Homo sapiens (Human), UniProt P18825). Nature of the series: Antagonism against the adrenoreceptor α2C (luminescence, noradrenaline-stimulated CHO cells). It counts as cell-based. As to conditions: noradrenaline 20 nM; CHO cell line with Gαqi3 and mtOb. As to the method: Antagonism against the adrenoreceptor α1A was tested using a recombinant human α1A receptor CHO cell line which additionally also recombinantly expresses mtAeq (mitochondrial aequorin). Antagonism against the adrenoreceptor α2A was tested using a recombinant human α2A-Gα16 receptor fusion protein CHO cell line (PerkinElmer Life Sciences) which additionally also recombinantly expresses mtAeq. Antagonism against the adrenoreceptor α2B was tested using a recombinant human α2B receptor CHO cell line (PerkinElmer Life Sciences) which additionally also recombinantly expresses mtAeq. Antagonism against the adrenoreceptor α2C was tested using a recombinant human α2C receptor CHO cell line which additionally also recombinantly expresses a chimaric G protein (Gαqi3) and mtOb (mitochondrial obelin).
The cells were cultivated at 37° C. and 5% CO2 in Dulbecco's modified Eagle's Medium/NUT mix F12 with L-glutamine which additionally contains 10% (v/v) inactivated foetal calf serum, 1 mM sodium pyruvate, 0.9 mM sodium bicarbonate, 50 U/ml penicillin, 50 μg/ml streptomycin, 2.5 μg/ml amphotericin B and 1 mg/ml Geneticin. The cells were passaged with enzyme-free Hank's-based cell dissociation buffer. All cell culture reagents used were from Invitrogen (Carlsbad, USA).
Luminescence measurements were carried out on white 384-well microtitre plates. 2000 cells/well were plated in a volume of 25 μl and cultivated for one day at 30° C. and 5% CO2 in cell culture medium with coelenterazine (α2A and α2B: 5 μg/ml; α1a/c and α2C: 2.5 μg/ml). Serial dilutions of the test substances (10 μl) were added to the cells. After 5 minutes, noradrenaline was added to the cells (35 μl; final concentrations: 20 nM (α1a/c and α2C) or 200 nM (α2A and α2B)), and the emitted light was measured for 50 seconds using a CCD (charge-coupled device) camera (Hamamatsu Corporation, Shizuoka, Japan) in a light-tight box. The test substances were tested up to a maximum concentration of 10 μM. The IC50 values were calculated from the appropriate dose-response curves.

The test system of series [2] is diabetic (ZDFfa/fa) and healthy rats (Wistar). Nature of the series: Assay of perfusion-enhancing substances (microcirculation), laser doppler at the paw. Format: in vivo, rat. An excerpt: In diabetic (ZDFfa/fa) and healthy rats (Wistar), a laser doppler probe was fastened under anaesthesia conditions (isoflurane anaesthesia) at the sole of the paw for measuring cutaneous microcirculation. The test animals were once treated orally with the test substances. During the experiment, microperfusion and temperature of the lower extremities were documented continuously. Here, a temperature-sensitive laser doppler probe (Periflux, O2C) was fastened with adhesive to the paws of the animals, allowing the measurement of microperfusion and skin temperature. The microcirculation measurement values were measured on both paws 30 min after oral administration of the test substance. […] Also stated is the MED for the significant increase of skin temperature (ttest).
Microcirculation data for adrenoreceptor α2C receptor antagonist of the compound of Example 8 and for the comparative substance ORM12741, an AR α2c receptor antagonist from Orion, are shown in Table 3: […]

The subject of series [3] is conscious female Wistar rats. Nature of the series: Radiotelemetric measurement of blood pressure and heart rate of conscious rats. Format: in vivo, rat. As to conditions: oral 10 mg/kg. The source says:
A commercially available telemetry system from Data Sciences International DSI, USA, was employed for the measurements on conscious rats described below. The system consists of 3 main components: (1) implantable transmitters (Physiotel® telemetry transmitter), (2) receivers (Physiotel® receiver), which are linked via a multiplexer (DSI Data Exchange Matrix) to a (3) data acquisition computer. The telemetry system makes it possible to continuously record blood pressure, heart rate and body motion of conscious animals in their usual habitat.
The studies were conducted on adult female Wistar rats with a body weight of >200 g. After transmitter implantation, the experimental animals were housed singly in type III Makrolon® cages. They had free access to standard feed and water. The day/night rhythm in the test laboratory was set by changing the illumination of the room.
The telemetry transmitters used (PA-C40, DSI) were surgically implanted under aseptic conditions in the experimental animals at least 14 days before the first experimental use.
For the implantation, the fasted animals were anaesthetized with isoflurane (IsoFlo®, Abbott, initiation 5%, maintenance 2%) and shaved and disinfected over a large area of their abdomens. […]
Each of the instrumented rats living in the system was assigned a separate receiving antenna (RPC-1 Receiver, DSI). […] The signals emitted were detected online by a data acquisition system (Dataquest™ A.R.T. for Windows, DSI) and processed accordingly.
In the standard procedure, the following were measured for 10-second periods in each case: (1) systolic blood pressure (SBP), (2) diastolic blood pressure (DBP), (3) mean arterial pressure (MAP) and (4) heart rate (HR) and (5) activity (ACT). These parameters were measured over 24 hours after administration.
The acquisition of measurements was repeated under computer control at 5-minute intervals. The source data obtained as absolute values were corrected in the diagram with the currently measured barometric pressure (Ambient Pressure Reference Monitor, APR-1, DSI). […]

recombinant human α2C receptor, sequence (P18825 whole entry, the tested form may be a part): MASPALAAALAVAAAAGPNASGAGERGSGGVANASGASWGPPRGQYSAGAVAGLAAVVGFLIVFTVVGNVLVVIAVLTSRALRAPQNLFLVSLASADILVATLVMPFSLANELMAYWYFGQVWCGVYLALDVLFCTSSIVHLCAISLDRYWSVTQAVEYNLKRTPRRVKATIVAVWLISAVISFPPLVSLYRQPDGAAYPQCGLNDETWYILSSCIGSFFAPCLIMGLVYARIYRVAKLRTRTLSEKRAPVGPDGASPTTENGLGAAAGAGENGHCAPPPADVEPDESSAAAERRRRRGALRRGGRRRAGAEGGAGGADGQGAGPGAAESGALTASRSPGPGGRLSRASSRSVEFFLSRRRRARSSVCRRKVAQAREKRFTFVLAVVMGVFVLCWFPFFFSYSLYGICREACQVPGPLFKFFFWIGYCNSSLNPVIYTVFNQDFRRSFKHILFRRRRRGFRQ

`O=C(O)[C@H]1CCCN1c1ncc(C(=O)N2CCC(N3CCc4ccccc4C3)CC2)cn1` [Example 11, 1-(5-{[4-(3,4-Dihydroisoquinolin-2(1H)-yl)piperidin-1-yl]carbonyl}pyrimidin-2-yl)-D-proline Hydrochloride]: the concentration for half-maximal inhibition (IC50) in series [1] came to 96 nM.
For the molecule `COc1ccc2c(c1)CCN(C1CCN(C(=O)c3cnc(N4CC5(COC5)C4)nc3)CC1)C2` [Example 10, [4-(6-Methoxy-3,4-dihydroisoquinolin-2(1H)-yl)piperidin-1-yl][2-(2-oxa-6-azaspiro[3.3]hept-6-yl)pyrimidin-5-yl]methanone], the IC50 in series [1] came out at 30 nM.
On the same count and under the same terms, the same measure for `CCC(COC)Nc1ncc(C(=O)N2CCC(N3CCc4ccc(OC)cc4C3)CC2)cn1` (racemic) [Example 4, (rac)-{2-[(1-Methoxybutan-2-yl)amino]pyrimidin-5-yl}[4-(7-methoxy-3,4-dihydroisoquinolin-2(1H)-yl)piperidin-1-yl]methanone]: 5 nM.
Turning to `COC[C@@]1(C)CCCN2CCc3c(oc4ccccc34)[C@@H]21` [ORM-12741, reference compound], the “factor by which microcirculation is improved at the MED compared to placebo” value in series [2] (single oral dose at MED, 30 min after administration) was determined as 1.9 x. Also, the MED microcirculation in series [2] (single oral dose, measured 30 min after administration, significant vs placebo) turned out to be 0.1 mg/kg. The MED skin temperature in series [2] (single oral dose, significant increase of skin temperature (ttest)) was 0.01 mg/kg. Further, the blood pressure entry in series [3] is “additional reduction in blood pressure”.
Regarding `CCC(CO)Nc1ncc(C(=O)N2CCC(N3CCc4ccccc4C3)CC2)cn1` (racemic) [Example 7, (rac)-[4-(3,4-Dihydroisoquinolin-2(1H)-yl)piperidin-1-yl]{2-[(1-hydroxybutan-2-yl)amino]pyrimidin-5-yl}methanone], the IC50 in series [1] amounted to 68 nM.
With `O=C(c1cnc(N2CC3(COC3)C2)nc1)N1CCC(N2CCc3ccc(F)cc3C2)CC1` [Example 9, [4-(7-Fluoro-3,4-dihydroisoquinolin-2(1H)-yl)piperidin-1-yl][2-(2-oxa-6-azaspiro[3.3]hept-6-yl)pyrimidin-5-yl]methanone], the concentration for half-maximal inhibition (IC50) in series [1] was 16 nM.
With `CC1CN(c2ncc(C(=O)N3CCC(N4CCc5ccccc5C4)CC3)cn2)CC(C)O1` (stereo not drawn) [Example 13, [4-(3,4-Dihydroisoquinolin-2(1H)-yl)piperidin-1-yl][2-(2,6-dimethylmorpholin-4-yl)pyrimidin-5-yl]methanone (Cis Isomer)], the half-inhibitory concentration (IC50) in series [1] amounted to 47 nM.
Consider `CC1CN(c2ncc(C(=O)N3CCC(N4CCc5ccccc5C4)CC3)cn2)CC(C)O1` (stereo not drawn) [Example 14, [4-(3,4-Dihydroisoquinolin-2(1H)-yl)piperidin-1-yl][2-(2,6-dimethylmorpholin-4-yl)pyrimidin-5-yl]methanone (Trans Isomer)], for which the half-inhibitory concentration (IC50) in series [1] came to 24 nM.
On to `O=C(c1cnc(N2CCS(=O)(=O)CC2)nc1)N1CCC(N2CCc3ccccc3C2)CC1` [Example 12, [4-(3,4-Dihydroisoquinolin-2(1H)-yl)piperidin-1-yl][2-(1,1-dioxidothiomorpholin-4-yl)pyrimidin-5-yl]methanone], for which, in series [1], the IC50 stood at 26 nM.
The same measure, in the same setting: the same measure for `COCCNc1ncc(C(=O)N2CCC(N3CCc4ccccc4C3)CC2)cn1` [Example 1, [4-(3,4-Dihydroisoquinolin-2(1H)-yl)piperidin-1-yl]{2-[(2-methoxyethyl)amino]pyrimidin-5-yl}methanone]: 82 nM; for `CCC(COC)Nc1ncc(C(=O)N2CCC(N3CCc4ccccc4C3)CC2)cn1` (racemic) [Example 6, (rac)-[4-(3,4-Dihydroisoquinolin-2(1H)-yl)piperidin-1-yl]{2-[(1-methoxybutan-2-yl)amino]pyrimidin-5-yl}methanone]: 31 nM; for `CC1(C)CN(c2ncc(C(=O)N3CCC(N4CCc5ccccc5C4)CC3)cn2)CCO1` [Example 15, [4-(3,4-Dihydroisoquinolin-2(1H)-yl)piperidin-1-yl][2-(2,2-dimethylmorpholin-4-yl)pyrimidin-5-yl]methanone]: 68 nM.
Take `CCC(COC)Nc1ncc(C(=O)N2CCC(N3CCc4cc(OC)ccc4C3)CC2)cn1` (racemic) [Example 5, (rac)-{2-[(1-Methoxybutan-2-yl)amino]pyrimidin-5-yl}[4-(6-methoxy-3,4-dihydroisoquinolin-2(1H)-yl)piperidin-1-yl]methanone]: the IC50 in series [1] is 20 nM.
`CCC(COC)Nc1ncc(C(=O)N2CCC(N3CCc4ccc(F)cc4C3)CC2)cn1` (racemic) [Example 2, (rac)-[4-(7-Fluoro-3,4-dihydroisoquinolin-2(1H)-yl)piperidin-1-yl]{2-[(1-methoxybutan-2-yl)amino]pyrimidin-5-yl}methanone]: the half-maximal inhibitory concentration (IC50) in series [1] came out at 26 nM.

Usually IC50 stands for the concentration that gives 50% inhibition.
